We go through two compounds from patent US20240049720A1, “A SYNERGISTIC AGRICULTURAL COMPOSITION” (priority 2021, published 2024).

The test system of experiment [1] is Alternaria alternata. Put plainly: In vitro control of Alternaria alternata on PDA medium. Type of experiment: cell-based. Particulars: dose 1 L/400 L water, mixture in 1:1 ratio, 28-30° C, dark, evaluated 7 days later. As for the experimental part: In Vitro Control of Alternaria alternata Using Kasugamycin and Copper Glycinate
Alternaria alternata was cultivated was in solid potato dextrose agar medium. The efficacy of the mixture of kasugamycin and copper glycinate in a 1:1 ratio, and each component individually was tested.
(§1) The in vitro assessment of the products effectiveness was carried out as per the treatments discussed in Table 6. Accordingly, the components in each treatment were dissolved in PDA culture medium at the dose indicated above. The mixture was homogenized and poured into sterile petri dishes. Explants of 5 mm diameter of the fungus strain Alternaria alternata were placed on the petri dishes with PDA. The dishes were incubated inverted, in dark conditions at a temperature of 28-30° C. The evaluation of the inhibition of the fungus was carried out 7 days later. Control percentage of Alternaria alternata with the K+CuGly mixture, as well as of kasugamycin and copper monoglycinate separately are provided in Table 5 below: […]

Experiment [2] has as its system Erwinia amylovora. The experiment in a line: Foliar application on apple trees (var. gala), control of Erwinia amylovora. Type of experiment: in vivo. Particulars: apple plants var. Gala; foliar spray, three applications every 7 days; kasugamycin 3.15 g/kg and/or copper 8 g/kg (17.32 g/kg copper monoglycinate). The source says:
Example 4: Foliar Application of Kasugamycin and Copper Glycinate in Apple Trees (var. gala) for Controlling Erwinia amylovora
Apple trees (var. gala) were foliar sprayed with formulations having kasugamycin alone, copper glycinate alone, and combination of kasugamycin and copper glycinate. The formulation having Kasugamycin alone was applied at a dosage of 3.15 g/kg of kasugamycin (3.45 g/kg of kasugamycin hydrochloride hydrate). The formulation having copper monoglycinate was applied at a dosage of 8 g/kg of copper (17.32 g/kg of copper monoglycinate). The formulation having kasugamycin and copper monoglycinate was applied at a dosage of 3.15 g/kg of kasugamycin (3.45 g/kg of kasugamycin hydrochloride hydrate) and 8 g/kg of copper (17.32 g/kg of copper monoglycinate).
Three applications were made every 7 days when the first symptoms of the disease appeared, and the % control of Erwinia amylovora was determined. Control percentage of Erwinia amylovora with the K+CuGly mixture, as well as of kasugamycin and copper monoglycinate separately, are provided in Table 3 below: […]

Experiment [3] concerns Fusarium spp. Put plainly: In vitro control of Fusarium spp on PDA medium. Type of experiment: cell-based. Particulars: strain isolated from potato, dose 1 L/400 L water, mixture in 1:1 ratio, 28-30° C, dark, evaluated 7 days later. How it is done: In Vitro Control of Fusarium spp Using Kasugamycin and Copper Glycinate
A strain of Fusarium spp isolated from potato was cultivated was in solid potato dextrose agar medium. The efficacy of the mixture of kasugamycin and copper glycinate in a 1:1 ratio, and each component individually was tested.
as §1, with “Table 4.” for “Table 6.”, “strain Fusarium spp.” for “strain Alternaria alternata”, “of Fusarium sp.” for “of Alternaria alternata”

The subject of experiment [4] is Xanthomonas campestris pv. vesicatoria. Put plainly: Foliar application on tomato plants (var. Pony express), control of bacterial disease. Type of experiment: in vivo. The conditions noted are these: foliar spray, three applications every 7 days, kasugamycin 2.1 g/kg and/or copper 8 g/kg (17.32 g/kg copper monoglycinate). The source says: Example 3: Foliar Application of Kasugamycin and Copper Glycinate in Tomato Plants (Var. Pony Express) for Controlling Xanthomonas campestris pv. vesicatoria
Tomato plants (var. Pony express) were foliar sprayed with formulations having kasugamycin alone, copper monoglycinate alone, and combination of kasugamycin and copper monoglycinate. The formulation having kasugamycin alone was applied at a dosage of 2.1 g/kg of kasugamycin (2.3 g/kg of kasugamycin hydrochloride hydrate) and the treatment was designated as T1. The formulation having copper monoglycinate was applied at a dosage of 8 g/kg of copper (17.32 g/kg of copper monoglycinate) and the treatment was designated as T2. The formulation having kasugamycin and copper monoglycinate was applied at a dosage of 2.1 g/kg of kasugamycin (2.3 g/kg of kasugamycin hydrochloride hydrate) and 8 g/kg of copper (17.32 g/kg of copper monoglycinate) and the treatment was designated as T3.
Three applications were made every 7 days when the first symptoms of the disease appeared, and the % control of […] was determined. Control percentage of Xanthomonas campestris pv. vesicatoria with the K+CuGly mixture, as well as of kasugamycin and copper glycinate separately are provided in Table 2 below: […]

As for `C[C@H]1O[C@H](O[C@H]2[C@H](O)[C@@H](O)[C@@H](O)[C@H](O)[C@@H]2O)[C@@H](N)C[C@@H]1NC(=N)C(=O)O` [Kasugamycin], in experiment [1], the “% Control of Alternaria alternata” value came to 79%. For the same compound, in experiment [2], the “% control of Erwinia amylovora” value is on record as 55.6%. In addition, the “% control of Fusarium sp.” value in experiment [3] turned out to be 55%. In addition, the “% control of Xanthomonas campestris pv. vesicatoria” value in experiment [4] is recorded as 93.2%.
Turning to Copper monoglycinate [Copper glycinate], the “% Control of Alternaria alternata” value in experiment [1] worked out at 53%. Also, in experiment [2], the “% control of Erwinia amylovora” value is given as 50%. Also, the “% control of Fusarium sp.” value in experiment [3] came out at 39%. For the same compound, the “% control of Xanthomonas campestris pv. vesicatoria” value in experiment [4] was determined as 80.5%.
